Measured values reported in ChEMBL document CHEMBL1201862, “PubChem BioAssay data set” (2004).
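Grown in 96-well plates, cells were treated for 48 hours with each compound at five concentrations. Insufficient inhibition: endpoint recorded as highest concentration tested. The concentration for 50% growth inhibition is given as GI50.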 Activity calls are given as the source filed them. Rule as the data show it: active = GI50 up to about 1.1 µM and inactive = higher.

Experiments:
Assay in all cases: DTP human tumour cell line panel, 48 h
[1] = test system: HL-60
[2] = test system: RPMI-8226
[3] = test system: LOX IMVI
[4] = test system: SF-539
[5] = test system: SK-MEL-28
[6] = test system: UO-31
[7] = test system: IGROV-1
[8] = test system: KM-20L2
[9] = test system: SW-620
[10] = test system: OVCAR-4
[11] = test system: SF-268
[12] = test system: SK-OV-3
[13] = test system: U-251
[14] = test system: SN12C
[15] = test system: A549
[16] = test system: EKVX
[17] = test system: HCC 2998
[18] = test system: CCRF-CEM

Measured: GI50

O=C(O)CCC(=O)Oc1ccc(O)c2c1CCCC2=O
inactive: [1] > 100 µM | [2] 95.5 µM | [3] > 100 µM | [4] > 100 µM | [5] > 100 µM | [6] > 100 µM | [7] > 100 µM | [8] > 100 µM | [9] > 100 µM | [10] > 100 µM | [11] > 100 µM | [12] > 100 µM | [13] > 100 µM | [14] > 100 µM | [15] > 100 µM | [16] 58.5 µM | [17] > 100 µM | [18] > 100 µM

COCCOCOC(C)(C)[C@H](CCOC(C)=O)O[Si](c1ccccc1)(c1ccccc1)C(C)(C)C
inactive: [1] 3.98 µM | [2] 3.96 µM | [3] 14.1 µM | [5] 56.5 µM | [6] 13.5 µM | [7] 23.6 µM | [8] 18.7 µM | [9] 28.1 µM | [10] 15 µM | [11] 34.6 µM | [12] 35.4 µM | [13] 12.3 µM | [14] 5.77 µM | [15] 21.1 µM | [16] 27.2 µM | [17] 9.1 µM | [18] 4.97 µM

Cc1[nH]c2ccccc2c1C(=O)CC1(O)C(=O)Nc2ccccc21 (stereo unspecified)
inactive: [1] > 100 µM | [2] > 100 µM | [3] > 100 µM | [4] > 100 µM | [5] > 100 µM | [6] > 100 µM | [7] > 100 µM | [8] > 100 µM | [9] > 100 µM | [10] > 100 µM | [11] > 100 µM | [12] > 100 µM | [13] > 100 µM | [14] > 100 µM | [15] > 100 µM | [16] 73.1 µM | [17] > 100 µM | [18] > 100 µM

C[C@H]1CC[P+](Cc2ccccc2)(c2ccccc2)C1 (stereo partly specified)
inactive: [1] 33.9 µM | [2] 19.5 µM | [3] 71.4 µM | [4] > 100 µM | [5] 84.7 µM | [6] > 100 µM | [7] 64.7 µM | [8] 93.5 µM | [9] > 100 µM | [10] > 100 µM | [12] > 100 µM | [13] 36.7 µM | [14] > 100 µM | [15] > 100 µM | [16] 73.3 µM | [17] 67.6 µM | [18] > 100 µM

COc1ccc2c(c1)Oc1cc(O)ccc1[C@H]2c1ccccc1C(=O)NC(C)c1ccccc1 (stereo partly specified)
inactive: [1] 14.4 µM | [2] 4.66 µM | [3] 16.9 µM | [4] 16.1 µM | [5] 17.7 µM | [6] 10.9 µM | [7] 15.1 µM | [8] 19.1 µM | [9] 17.1 µM | [11] 19 µM | [12] 21 µM | [13] 14.4 µM | [14] 16.3 µM | [15] 13.2 µM | [16] 16.5 µM | [17] 12.8 µM | [18] 16 µM

O=C1NC(Cc2ccc(O)cc2)C(=O)N2CCCC12 (stereo unspecified)
inactive: [1] > 100 µM | [2] > 100 µM | [3] > 100 µM | [4] > 100 µM | [5] > 100 µM | [6] > 100 µM | [7] > 100 µM | [8] > 100 µM | [9] > 100 µM | [10] > 100 µM | [11] > 100 µM | [12] > 100 µM | [13] > 100 µM | [14] > 100 µM | [15] > 100 µM | [16] > 100 µM | [17] > 100 µM | [18] > 100 µM

CCCC(=O)N[C@H]1C2C3CC4C5CC(C42)C1(C)C53 (stereo partly specified)
inactive: [1] > 100 µM | [2] > 100 µM | [3] > 100 µM | [4] > 100 µM | [5] > 100 µM | [6] > 100 µM | [7] > 100 µM | [8] > 100 µM | [9] > 100 µM | [10] > 100 µM | [11] > 100 µM | [12] > 100 µM | [13] > 100 µM | [14] > 100 µM | [15] > 100 µM | [16] > 100 µM | [17] > 100 µM | [18] > 100 µM

O=C(CC1(O)C(=O)Nc2c(Cl)cc(Cl)cc21)c1ccc(Br)cc1 (stereo unspecified)
inactive: [1] 4.3 µM | [2] 13 µM | [3] 22.5 µM | [4] 16.3 µM | [5] 19.7 µM | [6] 12.9 µM | [7] 18.2 µM | [8] 16.8 µM | [9] 26.9 µM | [10] 12.4 µM | [11] 16.4 µM | [12] 27 µM | [13] 13.4 µM | [14] 33.1 µM | [15] 20.7 µM | [16] 15.2 µM | [17] 39.5 µM | [18] 14.9 µM

C[C@]12CCC(=O)C=C1CC[C@@H]1[C@@H]2C(=O)C[C@@]2(C)[C@H]1CC[C@]2(O)C(=O)CO [CORTISONE]
inactive: [1] > 100 µM | [2] > 100 µM | [4] > 100 µM | [5] > 100 µM | [6] > 100 µM | [7] > 100 µM | [8] > 100 µM | [9] > 100 µM | [10] > 100 µM | [11] > 100 µM | [12] > 100 µM | [13] > 100 µM | [14] > 100 µM | [15] > 100 µM | [16] > 100 µM | [17] > 100 µM | [18] > 100 µM

N#CC(/C(CCC(=O)Nc1ccc(Cl)cc1)=N/NC(=O)c1cc2ccccc2cc1O)c1ccccc1 (stereo unspecified)
inactive: [1] 6.53 µM | [2] 14.9 µM | [3] 14.5 µM | [5] 48.8 µM | [6] 36.8 µM | [7] 31.7 µM | [8] 28.6 µM | [9] 50.4 µM | [10] 51.9 µM | [11] 25.4 µM | [13] 32.8 µM | [14] 43.4 µM | [15] 40.8 µM | [16] 34.4 µM | [17] 52.2 µM | [18] 10.2 µM

CC[C@@H]1OC2(C)CC(S(=O)(=O)c3ccccc3O)CC1O2 (stereo partly specified)
inactive: [1] > 100 µM | [2] > 100 µM | [4] > 100 µM | [5] > 100 µM | [6] > 100 µM | [7] > 100 µM | [8] > 100 µM | [9] > 100 µM | [10] > 100 µM | [11] > 100 µM | [12] > 100 µM | [13] > 100 µM | [14] > 100 µM | [15] > 100 µM | [16] > 100 µM | [17] > 100 µM | [18] > 100 µM
